PubChem BioAssay (NCI)
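All cell lines were grown in 96-well plates and treated with compound for 48 hours. GI50 marks 50% less growth. TGI: concentration producing complete growth inhibition.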

Columns and labels:
Assay in all cases: DTP human tumour cell line panel, 48 h
786-0 renal = system: 786-0 renal
A498 renal = system: A498 renal
A549 NSCLC = system: A549 NSCLC
ACHN renal = system: ACHN renal
BT-549 breast = system: BT-549 breast
CAKI-1 renal = system: CAKI-1 renal
CCRF-CEM leukemia = system: CCRF-CEM leukemia
COLO 205 colon = system: COLO 205 colon
DU-145 prostate = system: DU-145 prostate
EKVX NSCLC = system: EKVX NSCLC
HCC-2998 colon = system: HCC-2998 colon
HCT-116 colon = system: HCT-116 colon
HCT-15 colon = system: HCT-15 colon
HL-60(TB) leukemia = system: HL-60(TB) leukemia
HOP-62 NSCLC = system: HOP-62 NSCLC
HOP-92 NSCLC = system: HOP-92 NSCLC
HS 578T breast = system: HS 578T breast
HT29 colon = system: HT29 colon
IGROV1 ovarian = system: IGROV1 ovarian
K-562 leukemia = system: K-562 leukemia
KM12 colon = system: KM12 colon
LOX IMVI melanoma = system: LOX IMVI melanoma
M14 melanoma = system: M14 melanoma
MALME-3M melanoma = system: MALME-3M melanoma
MCF7 breast = system: MCF7 breast
MDA-MB-231 breast = system: MDA-MB-231 breast
MDA-MB-435 = system: MDA-MB-435
MOLT-4 leukemia = system: MOLT-4 leukemia
NCI-H226 lung = system: NCI-H226 lung
NCI-H23 lung = system: NCI-H23 lung
NCI-H460 lung = system: NCI-H460 lung
NCI/ADR-RES ovarian = system: NCI/ADR-RES ovarian
OVCAR-3 ovarian = system: OVCAR-3 ovarian
OVCAR-4 ovarian = system: OVCAR-4 ovarian
OVCAR-5 ovarian = system: OVCAR-5 ovarian
OVCAR-8 ovarian = system: OVCAR-8 ovarian
PC-3 prostate = system: PC-3 prostate
RPMI-8226 leukemia = system: RPMI-8226 leukemia
RXF 393 renal = system: RXF 393 renal
SF-268 CNS = system: SF-268 CNS
SF-295 CNS = system: SF-295 CNS
SF-539 CNS = system: SF-539 CNS
SK-MEL-2 melanoma = system: SK-MEL-2 melanoma
SK-MEL-28 melanoma = system: SK-MEL-28 melanoma
SK-MEL-5 melanoma = system: SK-MEL-5 melanoma
SK-OV-3 ovarian = system: SK-OV-3 ovarian
SN12C renal = system: SN12C renal
SNB-19 CNS = system: SNB-19 CNS
SNB-75 CNS = system: SNB-75 CNS
SR leukemia = system: SR leukemia
SW-620 colon = system: SW-620 colon
T-47D breast = system: T-47D breast
TK-10 renal = system: TK-10 renal
U251 CNS = system: U251 CNS
UACC-257 melanoma = system: UACC-257 melanoma
UACC-62 melanoma = system: UACC-62 melanoma
UO-31 renal = system: UO-31 renal

For `C=C(C)[C@@H]1CC[C@]2(COS(C)(=O)=O)CC[C@]3(C)[C@H](CC[C@@H]4[C@@]5(C)CCCNC(C)(C)[C@@H]5CC[C@]43C)[C@@H]12`, which GI50 (786-0 renal) is on record?
The GI50 was 1.8 µM.

And the TGI (786-0 renal)?
The TGI was 3.27 µM.

And the GI50 (A498 renal)?
Its GI50 is 1.82 µM.

What about the TGI (A498 renal) of the same compound?
Its TGI is 6.16 µM.

And the GI50 (A549 NSCLC)?
The GI50 was 1.82 µM.

What about the TGI (A549 NSCLC) of the same compound?
The TGI was 3.63 µM.

What about the GI50 (ACHN renal) of the same compound?
Its GI50 is 1.81 µM.

What about the TGI (ACHN renal) of the same compound?
Its TGI is 3.2 µM.

What about the GI50 (BT-549 breast) of the same compound?
The GI50 was 1.99 µM.

What about the TGI (BT-549 breast) of the same compound?
Its TGI is 4.08 µM.

What about the GI50 (CAKI-1 renal) of the same compound?
The GI50 was 1.67 µM.

What about the TGI (CAKI-1 renal) of the same compound?
The TGI was 3.19 µM.

What about the GI50 (CCRF-CEM leukemia) of the same compound?
The GI50 was 1.76 µM.

And the TGI (CCRF-CEM leukemia)?
The TGI was 4.42 µM.

What about the GI50 (COLO 205 colon) of the same compound?
Its GI50 is 1.73 µM.

And the TGI (COLO 205 colon)?
The TGI was 3.27 µM.

And the GI50 (DU-145 prostate)?
Its GI50 is 1.81 µM.

What about the TGI (DU-145 prostate) of the same compound?
The TGI was 3.29 µM.

What about the GI50 (EKVX NSCLC) of the same compound?
The GI50 was 1.58 µM.

And the TGI (EKVX NSCLC)?
Its TGI is 3.14 µM.

And the GI50 (HCC-2998 colon)?
Its GI50 is 1.74 µM.

What about the TGI (HCC-2998 colon) of the same compound?
The TGI was 3.16 µM.

And the GI50 (HCT-116 colon)?
The GI50 was 1.72 µM.

What about the TGI (HCT-116 colon) of the same compound?
Its TGI is 3.24 µM.

What about the GI50 (HCT-15 colon) of the same compound?
Its GI50 is 1.57 µM.

And the TGI (HCT-15 colon)?
Its TGI is 3.06 µM.

And the GI50 (HL-60(TB) leukemia)?
The GI50 was 1.62 µM.

And the TGI (HL-60(TB) leukemia)?
The TGI was 3.39 µM.

What about the GI50 (HOP-62 NSCLC) of the same compound?
The GI50 was 1.67 µM.

And the TGI (HOP-62 NSCLC)?
The TGI was 3.21 µM.

And the GI50 (HOP-92 NSCLC)?
Its GI50 is 1.3 µM.

What about the TGI (HOP-92 NSCLC) of the same compound?
Its TGI is 2.81 µM.

What about the GI50 (HS 578T breast) of the same compound?
Its GI50 is 1.85 µM.

What about the TGI (HS 578T breast) of the same compound?
Its TGI is 3.92 µM.

What about the GI50 (HT29 colon) of the same compound?
The GI50 was 1.83 µM.

And the TGI (HT29 colon)?
Its TGI is 3.55 µM.

And the GI50 (IGROV1 ovarian)?
Its GI50 is 1.77 µM.

And the TGI (IGROV1 ovarian)?
The TGI was 3.57 µM.

And the GI50 (K-562 leukemia)?
The GI50 was 1.16 µM.

And the TGI (K-562 leukemia)?
Its TGI is 3.06 µM.

What about the GI50 (KM12 colon) of the same compound?
The GI50 was 1.83 µM.

And the TGI (KM12 colon)?
The TGI was 3.39 µM.

What about the GI50 (LOX IMVI melanoma) of the same compound?
The GI50 was 1.09 µM.

And the TGI (LOX IMVI melanoma)?
The TGI was 2.37 µM.

And the GI50 (M14 melanoma)?
Its GI50 is 1.78 µM.

What about the TGI (M14 melanoma) of the same compound?
Its TGI is 3.47 µM.

What about the GI50 (MALME-3M melanoma) of the same compound?
Its GI50 is 1.77 µM.

What about the TGI (MALME-3M melanoma) of the same compound?
Its TGI is 3.73 µM.

And the GI50 (MCF7 breast)?
The GI50 was 1.59 µM.

And the TGI (MCF7 breast)?
The TGI was 3.5 µM.

What about the GI50 (MDA-MB-231 breast) of the same compound?
Its GI50 is 1.8 µM.

And the TGI (MDA-MB-231 breast)?
The TGI was 3.31 µM.

And the GI50 (MDA-MB-435)?
Its GI50 is 1.64 µM.

What about the TGI (MDA-MB-435) of the same compound?
Its TGI is 3.04 µM.

What about the GI50 (MOLT-4 leukemia) of the same compound?
The GI50 was 1.65 µM.

What about the TGI (MOLT-4 leukemia) of the same compound?
The TGI was 3.62 µM.

What about the GI50 (NCI-H226 lung) of the same compound?
The GI50 was 1.77 µM.

And the TGI (NCI-H226 lung)?
The TGI was 3.4 µM.

What about the GI50 (NCI-H23 lung) of the same compound?
Its GI50 is 1.68 µM.

And the TGI (NCI-H23 lung)?
The TGI was 3.34 µM.

And the GI50 (NCI-H460 lung)?
The GI50 was 1.8 µM.

And the TGI (NCI-H460 lung)?
The TGI was 3.49 µM.

What about the GI50 (NCI/ADR-RES ovarian) of the same compound?
Its GI50 is 1.72 µM.

And the TGI (NCI/ADR-RES ovarian)?
Its TGI is 3.27 µM.

And the GI50 (OVCAR-3 ovarian)?
Its GI50 is 1.79 µM.

What about the TGI (OVCAR-3 ovarian) of the same compound?
Its TGI is 3.22 µM.

What about the GI50 (OVCAR-4 ovarian) of the same compound?
The GI50 was 1.82 µM.

And the TGI (OVCAR-4 ovarian)?
The TGI was 3.65 µM.

And the GI50 (OVCAR-5 ovarian)?
The GI50 was 1.68 µM.

What about the TGI (OVCAR-5 ovarian) of the same compound?
Its TGI is 3.1 µM.

What about the GI50 (OVCAR-8 ovarian) of the same compound?
The GI50 was 1.93 µM.

And the TGI (OVCAR-8 ovarian)?
Its TGI is 3.77 µM.

And the GI50 (PC-3 prostate)?
The GI50 was 1.59 µM.

And the TGI (PC-3 prostate)?
Its TGI is 3.43 µM.

What about the GI50 (RPMI-8226 leukemia) of the same compound?
The GI50 was 2.05 µM.

And the TGI (RPMI-8226 leukemia)?
The TGI was 4.62 µM.

What about the GI50 (RXF 393 renal) of the same compound?
The GI50 was 1.66 µM.

What about the TGI (RXF 393 renal) of the same compound?
The TGI was 3.08 µM.

What about the GI50 (SF-268 CNS) of the same compound?
Its GI50 is 2.61 µM.

What about the TGI (SF-268 CNS) of the same compound?
The TGI was 6.49 µM.

What about the GI50 (SF-295 CNS) of the same compound?
The GI50 was 1.82 µM.

And the TGI (SF-295 CNS)?
The TGI was 3.33 µM.

And the GI50 (SF-539 CNS)?
Its GI50 is 1.66 µM.

And the TGI (SF-539 CNS)?
The TGI was 3.08 µM.

And the GI50 (SK-MEL-2 melanoma)?
The GI50 was 1.69 µM.

And the TGI (SK-MEL-2 melanoma)?
The TGI was 3.54 µM.

What about the GI50 (SK-MEL-28 melanoma) of the same compound?
The GI50 was 1.7 µM.

And the TGI (SK-MEL-28 melanoma)?
Its TGI is 3.22 µM.

And the GI50 (SK-MEL-5 melanoma)?
The GI50 was 1.73 µM.

And the TGI (SK-MEL-5 melanoma)?
The TGI was 3.13 µM.

And the GI50 (SK-OV-3 ovarian)?
The GI50 was 6.44 µM.

What about the TGI (SK-OV-3 ovarian) of the same compound?
The TGI was 19.6 µM.

What about the GI50 (SN12C renal) of the same compound?
The GI50 was 2.28 µM.

And the TGI (SN12C renal)?
Its TGI is 5.48 µM.

What about the GI50 (SNB-19 CNS) of the same compound?
Its GI50 is 1.75 µM.

And the TGI (SNB-19 CNS)?
Its TGI is 3.28 µM.

And the GI50 (SNB-75 CNS)?
The GI50 was 1.37 µM.

And the TGI (SNB-75 CNS)?
Its TGI is 3.08 µM.

What about the GI50 (SR leukemia) of the same compound?
The GI50 was 1.56 µM.

And the TGI (SR leukemia)?
The TGI was 3.52 µM.

What about the GI50 (SW-620 colon) of the same compound?
Its GI50 is 1.68 µM.

What about the TGI (SW-620 colon) of the same compound?
The TGI was 3.34 µM.

And the GI50 (T-47D breast)?
The GI50 was 1.78 µM.

What about the TGI (T-47D breast) of the same compound?
The TGI was 4 µM.

What about the GI50 (TK-10 renal) of the same compound?
Its GI50 is 1.68 µM.

What about the TGI (TK-10 renal) of the same compound?
Its TGI is 3.58 µM.

And the GI50 (U251 CNS)?
The GI50 was 1.75 µM.

And the TGI (U251 CNS)?
Its TGI is 3.29 µM.

What about the GI50 (UACC-257 melanoma) of the same compound?
The GI50 was 1.99 µM.

And the TGI (UACC-257 melanoma)?
Its TGI is 4.27 µM.

And the GI50 (UACC-62 melanoma)?
The GI50 was 1.72 µM.

And the TGI (UACC-62 melanoma)?
Its TGI is 3.14 µM.

What about the GI50 (UO-31 renal) of the same compound?
Its GI50 is 1.27 µM.

What about the TGI (UO-31 renal) of the same compound?
Its TGI is 2.63 µM.
